Results taken from publication PMC6271742, “A Novel Phage-Library-Selected Peptide Inhibits Human TNF-α Binding to Its Receptors” (Molecules, 2014).
Blank lines part the entries; values can stand above or below the substance they belong to. Bridges are numbered along the chain shown (N, C = ends). Roman numbers before positions name the chains, in order. Where no end group is shown, it is not given here.

What was measured:
[1] = biological target: T1, hTNF-α binding to adalimumab (Homo sapiens, UniProt P01375); test: SPR inhibition of hTNF-α binding to captured adalimumab; conditions: 25 µM peptide, 10 nM hTNF-α, adalimumab captured via Protein A on CM5 chip, read-out: inhibition of TNF-α binding to adalimumab
T1 construct: peaks around 17,300, 34,700 and 52,100 Da, corresponding to monomeric, homodimeric and homotrimeric forms of hTNF-α; purchased Prospec
T1 sequence (P01375 77-233 limits assumed): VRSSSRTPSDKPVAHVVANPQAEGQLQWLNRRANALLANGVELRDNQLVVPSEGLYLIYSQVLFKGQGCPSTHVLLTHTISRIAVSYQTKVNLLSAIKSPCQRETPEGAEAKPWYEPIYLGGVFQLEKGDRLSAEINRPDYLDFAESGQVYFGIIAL
Protocol: The anti-hTNF-α monoclonal antibody adalimumab was captured on a protein-A-coated sensor chip. 10 nM hTNF-α was injected over the immobilized antibody in the presence of different concentrations (25, 10 and 1 µM) of the tetra-branched anti-TNF-α peptide (Figure 3A).
(§1) All the experiments were performed on a Biacore T100 instrument (GE Healthcare, Milan, Italy); materials were purchased from GE Healthcare unless otherwise specified. Adalimumab was a kind gift from Galeazzi, University of Siena. Biotinylated linear and tetra-branched TNF-peptides were immobilized on a SA sensor chip. Briefly, peptides diluted in HBS-EP+ were injected for 60 s at a flow rate of 10 µL/min, obtaining 300 and 700 RUs respectively. Different concentrations of hTNF-α, from 250 nM to 2 µM in HBS-EP+, were injected for 180 s at a flow rate of 75 µL/min onto immobilized peptides. Association and dissociation kinetic rate constants (kon and koff) and the equilibrium dissociation constant Kd were calculated using BIAevaluation 3.0 software. […] Adalimumab monoclonal antibody (1 µg/mL in HBS-EP+ for 45 s at a flow rate of 10 µL/min) was immobilized on a CM5 sensor chip previously coated with Protein A (6500 RUs). Competition experiments were carried out injecting 10 nM hTNF-α for 180 s at flow rate of 30 µL/min with various concentrations (1, 10 and 25 µM) of tetra-branched TNF-peptide. […]

[2] = tested on: homotrimeric form of hTNF-α; test: MALDI-TOF MS analysis of hTNF-α oligomer dissociation; format: biochemical, human; conditions: 5 min at room temperature, linear mode
Protocol: To determine whether the anti-TNF-α peptide destabilized the oligomeric form of hTNF-α, we evaluated the distribution of monomeric, dimeric and trimeric hTNF-α by MS in the presence of increasing concentrations of anti-TNF-α peptide.
The anti-TNF-α peptide was incubated in a 3-fold or 10-fold molar excess with respect with hTNF-α at room temperature for 5 min. The dissociation of hTNF-α was analysed by mass spectrometry using a sinapinic acid matrix (Sigma-Aldrich) and a protein standard II (mass range ~10,000–70,000 Da, Brucker Daltonics) in an ultrafleXtreme MALDI-TOF/TOF mass spectrometer (Bruker Daltonics) in linear mode.

biotinylated hTNF-α = test: Phage ELISA of selected clones; format: binding, human; conditions: streptavidin-coated 96-well plates coated with 20 nM biotinylated hTNF-α; phage-displayed peptide
Protocol: Random 12-mer peptide phage library Ph.D.™-12 (New England Biolabs, Ipswich, MA, USA) was incubated with biotinylated hTNF-α. 10^11 phage, diluted in PBS (137 mM NaCl, 2 mM KCl, 10 mM Na2HPO4, 2 mM KH2PO4, pH 7.4) containing 0.1% (v/v) Tween 20 (PBST) and 3% bovine albumin (BSA) and incubated with 50 nM biotinylated hTNF-α o/n at 4 °C, was added to 100 μL Dynabeads-M280 coupled with streptavidin (Invitrogen¸ Waltham, MA, USA), saturated with 5% BSA in PBST, for 15 min at room temperature. After washing 10 times with PBST, bound phages were eluted with 5 μM adalimumab for 60 min at room temperature. The amplified phages were titered and underwent two further rounds of biopanning as described above, except that the concentration of biotinylated hTNF-α was diminished (20 nM and 10 nM for the second and third rounds of panning, respectively) and washing was performed using 0.5% (v/v) Tween 20.
In alternative to the selection described above we performed the following panning using SPR technology. Biotinylated hTNF-α was immobilized to the streptavidin (SA) sensor chip surface, obtaining final 2000 Resonance Units. […] For both pannings, the binding of selected clones to hTNF-α after the last round of panning was evaluated by phage ELISA in streptavidin-coated 96-well plates coated with 20 nM biotinylated hTNF-α.

murine TNF-α = test: SPR specificity: binding of murine TNF-α to immobilized peptides; conditions: data not shown
human TNF-α (hTNF-α) = biological target: T2, human TNF-α (hTNF-α) (Homo sapiens, UniProt P01375); test: SPR binding of hTNF-α to immobilized biotinylated peptides (Biacore T100); conditions: hTNF-α 250 nM to 2 µM over immobilized peptide
T2 construct: peaks around 17,300, 34,700 and 52,100 Da, corresponding to monomeric, homodimeric and homotrimeric forms of hTNF-α; purchased Prospec
T2 sequence (P01375 77-233 limits assumed): as above
Protocol: hTNF-α was injected over linear and tetra-branched peptides previously immobilized on a Biacore T100 SA sensor chip. hTNF-α was flowed at concentrations ranging from 250 nM to 2 µM. To assess any non-specific binding, hTNF-α was also injected over an empty flow cell.
as §1

inhibition at 25 µM [1]: ~80%
homo-dimeric hTNF-α peak in MS (in words) ([2]; tenfold molar excess of peptide): the homo-dimeric form also disappeared
Substance: I: HIHDDLLRYYGWKK-NH2 / II: HIHDDLLRYYGWK / III: HIHDDLLRYYGW / IV: HIHDDLLRYYGW (amide I:13-IV:C, I:14-II:C, II:13-III:C) [tetra-branched anti-TNF-α peptide]
homo-trimeric hTNF-α peak in MS (in words) ([2]; threefold molar excess of peptide): The peak corresponding to the homo-trimeric form disappeared

Substance: HIHDDLLRYYGW
phage ELISA result for clones expressing the sequence (in words) (biotinylated hTNF-α): positive

hTNF-α binding (in words) (human TNF-α (hTNF-α)): bound hTNF-α in a dose-dependent manner
Substance: I: HIHDDLLRYYGWKK-NH2 / II: HIHDDLLRYYGWK / III: HIHDDLLRYYGW / IV: HIHDDLLRYYGW (amide I:13-IV:C, I:14-II:C, II:13-III:C; C-terminus assumed) [tetra-branched peptide]
binding for murine TNF-α (in words) (murine TNF-α): did not show any binding for murine TNF-α
